# According to US7803930B2, “Antisense modulation of apolipoprotein B-expression” (Isis Pharmaceuticals, Inc., priority 2002, dated 2010):
# In the oligonucleotide strings, read from the 5' end, every base follows the letter of its sugar. An asterisk marks phosphorothioate; unmarked linkages are phosphodiester. Other units and linkages are bracketed, terminal groups are in braces. A string of capitals states the bases alone. e = 2'-O-(2-methoxyethyl) (MOE); [5mC] = 5-methylcytosine; d = 2'-deoxy (DNA)
# Tested on: human apolipoprotein B mRNA
# Experiment: Inhibition of human apolipoprotein B mRNA levels in HepG2 cells, quantitative real-time PCR
# Type: cell-based
# Conditions: HepG2 cells treated with 150 nM of compound; averages from two experiments; quantitative real-time PCR
# Description: The human hepatoblastoma cell line HepG2 was obtained from the American Type Culture Collection (Manassas, Va.). HepG2 cells were routinely cultured in Eagle's MEM supplemented with 10% fetal calf serum, non-essential amino acids, and 1 mM sodium pyruvate (Gibco/Life Technologies, Gaithersburg, Md.). Cells were routinely passaged by trypsinization and dilution when they reached 90% confluence. Cells were seeded into 96-well plates (Falcon-Primaria #3872) at a density of 7000 cells/well for use in RT-PCR analysis.
# When cells reached 80% confluency, they were treated with oligonucleotide. For cells grown in 96-well plates, wells were washed once with 200 μL OPTI-MEM™-1 reduced-serum medium (Gibco BRL) and then treated with 130 μL of OPTI-MEM™-1 containing 3.75 μg/mL LIPOFECTIN™ (Gibco BRL) and the desired concentration of oligonucleotide. After 4-7 hours of treatment, the medium was replaced with fresh medium. Cells were harvested 16-24 hours after oligonucleotide treatment.
# Quantitation of apolipoprotein B mRNA levels was determined by real-time quantitative PCR using the ABI PRISM™ 7700 Sequence Detection System (PE-Applied Biosystems, Foster City, Calif.) according to manufacturer's instructions. This is a closed-tube, non-gel-based, fluorescence detection system which allows high-throughput quantitation of polymerase chain reaction (PCR) products in real-time. As opposed to standard PCR, in which amplification products are quantitated after the PCR is completed, products in real-time quantitative PCR are quantitated as they accumulate. This is accomplished by including in the PCR reaction an oligonucleotide probe that anneals specifically between the forward and reverse PCR primers, and contains two fluorescent dyes. A reporter dye (e.g., JOE, FAM, or VIC, obtained from either Operon Technologies Inc., Alameda, Calif. or PE-Applied Biosystems, Foster City, Calif.) is attached to the 5′ end of the probe and a quencher dye (e.g., TAMRA, obtained from either Operon Technologies Inc., Alameda, Calif. or PE-Applied Biosystems, Foster City, Calif.) is attached to the 3′ end of the probe. When the probe and dyes are intact, reporter dye emission is quenched by the proximity of the 3′ quencher dye. During amplification, annealing of the probe to the target sequence creates a substrate that can be cleaved by the 5′-exonuclease activity of Taq polymerase. […] With each cycle, additional reporter dye molecules are cleaved from their respective probes, and the fluorescence intensity is monitored at regular intervals by laser optics built into the ABI PRISM™ 7700 Sequence Detection System. In each assay, a series of parallel reactions containing serial dilutions of mRNA from untreated control samples generates a standard curve that is used to quantitate the percent inhibition after antisense oligonucleotide treatment of test samples.
# PCR reagents were obtained from PE-Applied Biosystems, Foster City, Calif. RT-PCR reactions were carried out by adding 25 μL PCR cocktail (1× TAQMAN™ buffer A, 5.5 mM MgCl2, 300 μM each of DATP, dCTP and dGTP, 600 μM of dUTP, 100 nM each of forward primer, reverse primer, and probe, 20 Units RNAse inhibitor, 1.25 Units AMPLITAQ GOLD™, and 12.5 Units MuLV reverse transcriptase) to 96 well plates containing 25 μL total RNA solution. The RT reaction was carried out by incubation for 30 minutes at 48° C. Following a 10 minute incubation at 95° C. to activate the AMPLITAQ GOLD™, 40 cycles of a two-step PCR protocol were carried out: 95° C. for 15 seconds (denaturation) followed by 60° C. for 1.5 minutes (annealing/extension).
# Gene target quantities obtained by real time RT-PCR are normalized using either the expression level of GAPDH, a gene whose expression is constant, or by quantifying total RNA using RiboGreen™ (Molecular Probes, Inc. Eugene, Oreg.). GAPDH expression is quantified by real time RT-PCR, by being run simultaneously with the target, multiplexing, or separately. […]
row,Substance,% INHIB (inhibition of human apolipoprotein B mRNA levels) [%]
1,301033 (eA*e[5mC]*eT*eG*e[5mC]*d[5mC]*dT*dA*d[5mC]*dT*dG*d[5mC]*dA*dA*dG*eG*e[5mC]*eT*eG*eG; antisense) [compound 301033],77
2,301042 (eA*eA*eA*eT*eG*d[5mC]*d[5mC]*dA*dT*d[5mC]*d[5mC]*dT*dT*d[5mC]*dT*eG*eA*eG*eT*eT; antisense) [compound 301042],81
3,301023 (eT*eA*eG*eA*eG*dG*dA*dT*dG*dA*dT*dA*dG*dT*dA*eA*eG*eT*eT*e[5mC]; antisense) [compound 301023],69
4,281606 (antisense eT*eG*e[5mC]*eA*eA*d[5mC]*dT*dG*dT*dA*dA*dT*d[5mC]*d[5mC]*dA*eG*e[5mC]*eT*e[5mC]*e[5mC]) [compound 281606],86
5,271016 (antisense eA*e[5mC]*e[5mC]*e[5mC]*eA*dG*dA*dA*dT*d[5mC]*dA*dT*dG*dG*d[5mC]*e[5mC]*eT*eG*eA*eT) [compound 271016],19
6,281596 (eT*eG*eA*e[5mC]*eT*dG*d[5mC]*dT*dT*d[5mC]*dA*dT*d[5mC]*dA*d[5mC]*eT*eG*eA*eG*eG; antisense) [compound 281596],77
7,281598 (eT*e[5mC]*eG*e[5mC]*eA*dG*d[5mC]*dT*dG*d[5mC]*dT*dG*dT*dG*d[5mC]*eT*eG*eA*eG*eG; antisense) [compound 281598],70
8,271017 (antisense eG*eG*eT*eG*e[5mC]*d[5mC]*dT*dG*dT*d[5mC]*dT*dG*d[5mC]*dT*d[5mC]*eA*eG*e[5mC]*eT*eG) [compound 271017],30
9,301017 (eT*e[5mC]*e[5mC]*eT*e[5mC]*dA*dG*d[5mC]*dG*dG*d[5mC]*dA*dG*d[5mC]*dA*eA*e[5mC]*e[5mC]*eG*eA; antisense) [compound 301017],47
10,281628 (antisense e[5mC]*eT*eA*eG*eA*d[5mC]*dA*d[5mC]*dG*dA*dG*dA*dT*dG*dA*eT*eG*eA*e[5mC]*eT) [compound 281628],81

# Same assay, conditions: HepG2 cells; 50 nM; 24 hour (Table 40)
row,Substance,% Change in apolipoprotein B mRNA expression [%]
1,"332775 (antisense GCCTCATTATTATTATCACC; sugars from the 5' end e5 d10 e5, all phosphorothioate, methylation of C not given here) [compound 332775]",−1

# Same assay, conditions: HepG2 cells; 150 nM; 24 hour (Table 40)
row,Substance,% Change in apolipoprotein B mRNA expression
1,"332775 (antisense GCCTCATTATTATTATCACC; sugars from the 5' end e5 d10 e5, all phosphorothioate, methylation of C not given here) [compound 332775]",+10%

# Same assay, conditions: HepG2 cells; human apolipoprotein B mRNA; oligonucleotides targeting genomic sequence SEQ ID NO 334; averages from two experiments
row,Substance,% INHIB [%]
1,301189 (antisense eT*eG*eT*eG*eT*d[5mC]*dA*d[5mC]*dA*dA*d[5mC]*dT*dA*dT*dG*eG*eT*eA*eA*eA) [compound 301189],63
2,301163 (antisense eG*e[5mC]*eT*eG*eG*dG*d[5mC]*dA*dT*dG*d[5mC]*dT*d[5mC]*dT*d[5mC]*eT*e[5mC]*e[5mC]*e[5mC]*e[5mC]) [compound 301163],51
3,301093 (antisense eT*eG*eG*eA*eT*dT*dT*dG*dG*dA*dT*dA*d[5mC]*dA*d[5mC]*eA*eA*eG*eT*eT) [compound 301093],42
4,301112 (antisense eG*eG*eA*eA*eA*d[5mC]*dT*d[5mC]*dA*d[5mC]*dT*dT*dG*dT*dT*eG*eA*e[5mC]*e[5mC]*eG) [compound 301112],25
5,301150 (eG*eA*eA*eA*eG*dG*dA*dA*dG*dG*dA*d[5mC]*dT*dA*dG*e[5mC]*eA*eT*eA*eT; antisense) [compound 301150],39
6,301202 (antisense e[5mC]*eA*eG*e[5mC]*eT*d[5mC]*dA*d[5mC]*dA*d[5mC]*dT*dT*dA*dT*dT*eT*eT*eA*eA*eA) [compound 301202],7
7,301066 (eG*eA*e[5mC]*e[5mC]*eT*d[5mC]*d[5mC]*d[5mC]*d[5mC]*dA*dG*d[5mC]*d[5mC]*dA*d[5mC]*eG*eT*eG*eG*eA; antisense) [compound 301066],61
8,301133 (eA*eA*eG*eA*eA*dA*dA*dT*dG*dG*d[5mC]*dA*dT*d[5mC]*dA*eG*eG*eT*eT*eT; antisense) [compound 301133],13
9,301127 (eT*e[5mC]*e[5mC]*eT*eA*dG*dA*dG*d[5mC]*dA*d[5mC]*dT*dA*dT*d[5mC]*eA*eA*eG*eT*eA; antisense) [compound 301127],41
10,301208 (antisense eT*eG*eG*eT*eA*dT*dT*dT*dA*d[5mC]*d[5mC]*dT*dG*dA*dG*eG*eG*e[5mC]*eT*eG) [compound 301208],21
11,301125 (eA*eG*eG*eG*eA*dT*dG*dG*dT*d[5mC]*dA*dA*dT*d[5mC]*dT*eG*eG*eT*eA*eG; antisense) [compound 301125],57
12,301153 (eA*eG*eT*e[5mC]*eA*dG*dA*dA*dA*dA*d[5mC]*dA*dA*d[5mC]*d[5mC]*eT*eA*eT*eT*e[5mC]; antisense) [compound 301153],11
13,301106 (antisense eA*eA*eA*eG*eA*dA*dA*d[5mC]*dT*dA*dT*d[5mC]*d[5mC]*dT*dG*eT*eA*eT*eT*e[5mC]) [compound 301106],12
14,301072 (eA*eT*eT*eT*eT*dA*dA*dA*dT*dT*dA*d[5mC]*dA*dG*dT*eA*eG*eA*eT*eA; antisense) [compound 301072],43
15,301128 (e[5mC]*e[5mC]*eT*e[5mC]*e[5mC]*dT*dG*dG*dT*d[5mC]*d[5mC]*dT*dG*d[5mC]*dA*eG*eT*e[5mC]*eA*eA; antisense) [compound 301128],56

# Same assay, conditions: Table 1; HepG2 cells, 150 nM; averages from two experiments
row,Substance,% INHIB [%]
1,147810 (antisense eA*eT*eT*eT*e[5mC]*dA*dG*d[5mC]*dA*dT*dA*dT*dG*dA*dG*e[5mC]*e[5mC]*e[5mC]*eA*eT) [compound 147810],0

# Same assay, conditions: Table 11 gene walk; HepG2 cells, 50 nM; averages from two experiments
row,Substance,% INHIB 50 nm [%]
1,308596 (antisense eA*eG*eT*e[5mC]*eT*dG*d[5mC]*dT*dT*d[5mC]*dG*d[5mC]*dA*d[5mC]*d[5mC]*eT*eT*e[5mC]*eT*eG) [compound 308596],81
2,308591 (antisense eG*e[5mC]*eA*e[5mC]*e[5mC]*dT*dT*d[5mC]*dT*dG*d[5mC]*dT*dT*dG*dA*eG*eT*eT*eA*e[5mC]) [compound 308591],76
3,308602 (antisense e[5mC]*eA*eT*eG*eG*dT*dA*dG*d[5mC]*d[5mC]*dT*d[5mC]*dA*dG*dT*e[5mC]*eT*eG*e[5mC]*eT) [compound 308602],83

# Same assay, conditions: Table 11 gene walk; HepG2 cells, 150 nM; averages from two experiments
row,Substance,% INHIB 150 nm [%]
1,308596 (antisense eA*eG*eT*e[5mC]*eT*dG*d[5mC]*dT*dT*d[5mC]*dG*d[5mC]*dA*d[5mC]*d[5mC]*eT*eT*e[5mC]*eT*eG) [compound 308596],94
2,308591 (antisense eG*e[5mC]*eA*e[5mC]*e[5mC]*dT*dT*d[5mC]*dT*dG*d[5mC]*dT*dT*dG*dA*eG*eT*eT*eA*e[5mC]) [compound 308591],92
3,308602 (antisense e[5mC]*eA*eT*eG*eG*dT*dA*dG*d[5mC]*d[5mC]*dT*d[5mC]*dA*dG*dT*e[5mC]*eT*eG*e[5mC]*eT) [compound 308602],92

# Same assay, conditions: Table 13 gene walk; HepG2 cells, 50 nM; averages from two experiments
row,Substance,% INHIB 50 nm [%]
1,308628 (e[5mC]*e[5mC]*eT*e[5mC]*eA*dG*dT*d[5mC]*dT*dG*d[5mC]*dT*dT*d[5mC]*dG*e[5mC]*eG*e[5mC]*e[5mC]*eT; antisense) [compound 308628],61

# Same assay, conditions: Table 13 gene walk; HepG2 cells, 150 nM; averages from two experiments
row,Substance,% INHIB 150 nm [%]
1,308628 (e[5mC]*e[5mC]*eT*e[5mC]*eA*dG*dT*d[5mC]*dT*dG*d[5mC]*dT*dT*d[5mC]*dG*e[5mC]*eG*e[5mC]*e[5mC]*eT; antisense) [compound 308628],92
